The text below walks through data of US20240376126A1, “PRMT5 INHIBITOR AND THE USE THEREOF” (CYTOSINLAB THERAPEUTICS CO., LTD., priority 2022, published 2024).

Structures are written as SMILES.

Assay [1] relates to HCT116-MTAP-KO (MTAP null) cells. As to the kind of experiment: Proliferation inhibition of HCT116 MTAP-KO cells in vitro (CellTiter Glo, 6 days). Type of assay: cell-based. The note with it: HCT116-MTAP null, 144 h, read-out: Cell proliferation inhibition rate HCT116-MTAP null IC50 (nm). The text has this:
(§1) Biological Test Example 2 Proliferation Inhibition of HCT116 and HCT116 MTAP-KO Cells In Vitro
(§2) HCT116 cell line was purchased from the Chinese Academy of Sciences Cell Bank, and the MTAP gene was knocked out by CRISPR/Cas9 technology to obtain HCT116-MTAP-KO cell line.
(§3) McCoy's 5A medium (Gibco, catalog No. 16600082), fetal bovine serum (Gibco, catalog No. 10099141C), penicillin-streptomycin double antibody (Gibco, catalog No. 15140122), pancreatic enzyme (Gibco, catalog No. 25200056), CellTiter Glo assay kit (Promega, catalog No. G7572), 384-well transparent flat-bottomed black walled cell culture plate (Corning, catalog No. 3764), ultra micro sampler (Tecan, catalog No. D300e), Multimode reader (Biotek, catalog No. SynergyHTX)
(§4) • 1. Cell culture: HCT116 and HCT116-MTAP-KO cells were cultured in McCoy'5A medium+10% fetal bovine serum+1% penicillin-streptomycin double antibody; to ensure that they were always in the logarithmic growth phase and the cell viability greater than 95%. • 2. Compound concentration gradient preparation: The compound to be tested was added to a 384-well plate using an ultra micro sampler, starting from 30 μM (HCT116 cells) or 3 μM (HCT116-MTAP-KO cells), and diluted with DMSO at 3 times for a total of 9 concentrations and set up three duplicate wells. • 3. Treatment of cells with compounds: Trypsin-digested HCT116 or HCT116-MTAP-KO cell suspension was added to the 384-well plates spotted with the compounds to be tested at 40 μL per well, i.e., 100 cells per well, and the final concentration of DMSO was 0.4%. The cell culture plate was incubated at 37° C. in a 5% CO2 incubator for 6 days. • 4. Detection: 20 μL of CellTiter Glo reagent was added to each well of the cell culture plate and incubated at room temperature for 30 minutes. A multimode reader was used to detect the luminescence signal at […]. • 5. Data analysis:
(§5) The data was fitted with GraphPad Prism 8.0 software using a four parameter inhibitor-reaction model to obtain the […] (half inhibitory concentration) of the test compounds.
(§6) The first column represents cell proliferation inhibition rate HCT116 MTAP WT IC50 (nm), and the second column represents cell proliferation inhibition rate HCT116-MTAP null IC50 (nm): […]
In general terms: ATP-based viability assays read luminescence as a measure of living cells.

A further assay has as its system HCT116 MTAP WT cells. Nature of the assay: Proliferation inhibition of HCT116 cells in vitro (CellTiter Glo, 6 days). The settings on record: Homo sapiens, HCT-116, 144 h, read-out: Cell proliferation inhibition rate HCT116 MTAP WT IC50 (nm). Type of assay: cell-based.
Text: as §1, §2, §3, §4, §5, §6

Take `CC(C)CN(Cc1cn2cc(C(F)(F)F)ccc2n1)C(=O)c1ccc2nc(N)c3c(c2c1)COC3` [Example 3, 4-Amino-N-isobutyl-N—((6-(trifluoromethyl)imidazolo [1,2-a]pyridin-2-yl)methyl)-1,3-dihydrofurano [3,4-c] quinolin-8-carboxamide]: the figures for the IC50 (in assay [1]; in the assay on HCT116 MTAP WT cells) were under 100 nM and 1000 to 10000 nM, respectively. In the same order, the values of `CC1OCc2c1c(N)nc1ccc(C(=O)N(Cc3cn4ccccc4n3)C(C)c3ncccn3)cc21` (centres unmarked) [Example 5] are under 100 nM and 1000 to 10000 nM. `CCN(Cc1cn2ccccc2n1)C(=O)c1ccc2nc(N)c3c(c2c1)COC3` [Example 6]: the IC50 in assay [1] is under 100 nM; with HCT116 MTAP WT cells, 1000 to 10000 nM.

For `CCN(Cc1cn2ccccc2n1)C(=O)c1ccc2nc(N)c3c(c2c1)COC3C` (centres unmarked) [Example 7], the results for the IC50 (in assay [1]; in the assay on HCT116 MTAP WT cells) were under 100 nM and 1000 to 10000 nM, respectively. Turning to `Cc1cc2cc(C(=O)N(Cc3cn4ccccc4n3)C(C)c3ncccn3)ccc2nc1N` (centres unmarked) [Example 8], the IC50 in assay [1] is under 100 nM; in the assay on HCT116 MTAP WT cells, 1000 to 10000 nM. In the same order, the values of `Cn1ncc2c(N)nc3cc(F)c(C(=O)N(Cc4cn5ccccc5n4)C4COC4)cc3c21` [Example 9] are 100 to 1000 nM and 1000 to 10000 nM.

For the molecule `CCN(C(=O)c1cc2c(cc1F)nc(N)c1cnn(C)c12)C(C)c1cn2ccccc2n1` (centres unmarked) [Example 10], the results for the IC50 (in assay [1]; in the assay with HCT116 MTAP WT cells) were under 100 nM and 1000 to 10000 nM, respectively. In the same order, the values of `COCCN(Cc1cn2ccccc2n1)C(=O)c1cc2c(cc1F)nc(N)c1cnn(C)c12` [Example 11] are under 100 nM and 1000 to 10000 nM. For `Cn1ncc2c(N)nc3cc(F)c(C(=O)N(Cc4cn5ccccc5n4)C45CC(C4)C5)cc3c21` [Example 12] the same measures were under 100 nM and 100 to 1000 nM.

Consider `Cn1cc(N(Cc2cn3ccccc3n2)C(=O)c2cc3c(cc2F)nc(N)c2cnn(C)c23)cn1` [Example 14], for which the IC50 in assay [1] is under 100 nM; with HCT116 MTAP WT cells it was 1000 to 10000 nM. In the same order, the values of `CCN(C(=O)c1ccc2nc(N)c3c(cnn3C)c2c1)C(C)c1cn2ccccc2n1` (centres unmarked) [Example 15] are 100 to 1000 nM and 1000 to 10000 nM. With `Cn1cc(N(Cc2cn3cc(C(F)(F)F)ccc3n2)C(=O)c2ccc3nc(N)c4cnn(C)c4c3c2)cn1` [Example 16], the IC50 in assay [1] was in the range of 100 to 1000 nM; in the assay on HCT116 MTAP WT cells, 1000 to 10000 nM.

On to `CCN(Cc1cn2ccccc2n1)C(=O)c1ccc2nc(N)c3cnn(C)c3c2c1` [Example 18], for which the IC50 was under 100 nM in assay [1] and 1000 to 10000 nM with HCT116 MTAP WT cells. For `CC1COCC(c2cn3ccccc3n2)N1C(=O)c1cc2c(cc1F)nc(N)c1cnn(C)c12` (centres unmarked) [Example 19] the same measures were under 100 nM and 100 to 1000 nM. In the same order, the values of `CC(C)CN(Cc1cn2cc(C#N)ccc2n1)C(=O)c1cc2c(cc1F)nc(N)c1cnn(C)c12` [Example 20] are under 100 nM and 100 to 1000 nM. For the molecule `Cn1ncc2c(N)nc3cc(F)c(C(=O)N(Cc4cn5ccccc5n4)C4CCOC4)cc3c21` (centres unmarked) [Example 22], the IC50 in assay [1] lay within 100 to 1000 nM; in the assay with HCT116 MTAP WT cells it was 1000 to 10000 nM.

For `Cn1ncc2c(N)nc3cc(F)c(C(=O)N(Cc4cn5ccccc5n4)C4CCCC4O)cc3c21` (centres unmarked) [Example 23], the values for the IC50 (in assay [1]; with HCT116 MTAP WT cells) were under 100 nM and 1000 to 10000 nM, respectively. In the same order, the values of `Cn1ncc2c(N)nc3cc(F)c(C(=O)N(Cc4cn5ccccc5n4)C4CCCCC4O)cc3c21` (centres unmarked) [Example 24] are under 100 nM and 1000 to 10000 nM. For the molecule `CC1COCC(c2cn3ccccc3n2)N1C(=O)c1ccc2nc(N)c3c(cnn3C)c2c1` (centres unmarked) [Example 25], the IC50 in assay [1] fell in the range of 100 to 1000 nM; with HCT116 MTAP WT cells it was 1000 to 10000 nM. For `Cn1ncc2c(N)nc3cc(F)c(C(=O)N(Cc4cn5ccccc5n4)CC(F)F)cc3c21` [Example 26] the same measures were under 100 nM and 1000 to 10000 nM. With `Cn1ncc2c(N)nc3cc(F)c(C(=O)N(Cc4cn5ccccc5n4)CC(C)(F)F)cc3c21` [Example 27], the IC50 in assay [1] is under 100 nM; with HCT116 MTAP WT cells it was 1000 to 10000 nM. Consider `CC(N(Cc1cn2ccccc2n1)C(=O)c1cc2c(cc1F)nc(N)c1cnn(C)c12)C(F)(F)F` (centres unmarked) [Example 28], for which the IC50 was under 100 nM in assay [1] and 1000 to 10000 nM in the assay with HCT116 MTAP WT cells.

For the molecule `CCN(Cc1cn2ccccc2n1)C(=O)c1ccc2nc(N)c3c(cnn3C)c2c1` [Example 29], the IC50 in assay [1] lay within 100 to 1000 nM; in the assay on HCT116 MTAP WT cells it was 1000 to 10000 nM. Regarding `CCN(Cc1nc2ccccn2c1C)C(=O)c1cc2c(cc1F)nc(N)c1cnn(C)c12` [Example 30], the figures for the IC50 (in assay [1]; in the assay with HCT116 MTAP WT cells) were under 100 nM and 1000 to 10000 nM, respectively. For `CC(c1cn2ccccc2n1)N(C(=O)c1cc2c(cc1F)nc(N)c1cnn(C)c12)C12CC(C1)C2` (centres unmarked) [Example 31], the values for the IC50 (in assay [1]; in the assay with HCT116 MTAP WT cells) were under 100 nM and 1000 to 10000 nM, respectively.

As to `Cc1cc2cc(C(=O)N(Cc3cn4ccccc4n3)C(C)c3cccc(F)n3)ccc2nc1N` (centres unmarked) [Example 32], the results for the IC50 (in assay [1]; in the assay on HCT116 MTAP WT cells) were under 100 nM and 1000 to 10000 nM, respectively.

In the case of `CCN(C(=O)c1ccc2nc(N)c3c(c2c1)COC3C)C(C)c1cn2ccccc2n1` (centres unmarked) [Example 33], the IC50 in assay [1] lay within 100 to 1000 nM; in the assay with HCT116 MTAP WT cells, 1000 to 10000 nM.

Consider `CC(C)CN(Cc1cn2cc(C(F)(F)C(F)(F)F)ccc2n1)C(=O)c1cc2c(cc1F)nc(N)c1cnn(C)c12` [Example 34], for which the IC50 (in assay [1]; in the assay on HCT116 MTAP WT cells) was under 100 nM each time. Consider `COCCOc1ccc2nc(CN(CC(C)C)C(=O)c3cc4c(cc3F)nc(N)c3cnn(C)c34)cn2c1` [Example 35], for which the results for the IC50 (in assay [1]; in the assay on HCT116 MTAP WT cells) were under 100 nM and 1000 to 10000 nM, respectively. Turning to `CC(C)CN(Cc1cn2cc(C(F)(F)F)ccc2n1)C(=O)c1cc2c(cc1F)nc(N)c1cnn(C)c12` [Example 36], the IC50 was under 100 nM in assay [1] and 100 to 1000 nM in the assay with HCT116 MTAP WT cells. For `[2H]C([2H])([2H])N(Cc1cn2ccccc2n1)C(=O)c1cc2c(cc1F)nc(N)c1cnn(C)c12` [Example 37] the same measures were under 100 nM and 1000 to 10000 nM. In the same order, the values of `Cc1cc2cc(C(=O)N(Cc3cn4ccccc4n3)C(C)c3ncccn3)c(F)cc2nc1N` (centres unmarked) [Example 38] are under 100 nM and 1000 to 10000 nM. `Cc1cc2cc(C(=O)N(Cc3cn4cc(C(F)(F)F)ccc4n3)C(C)c3ncccn3)c(F)cc2nc1N` (centres unmarked) [Example 39]: the IC50 was under 100 nM in assay [1] and 1000 to 10000 nM in the assay on HCT116 MTAP WT cells. Take `CCN(C(=O)c1cc2cc(C)c(N)nc2cc1F)C(C)c1cn2ccccc2n1` (centres unmarked) [Example 40]: the IC50 in assay [1] is under 100 nM; in the assay on HCT116 MTAP WT cells, 1000 to 10000 nM. As for `COCCN(Cc1cn2cc(C(F)(F)F)ccc2n1)C(=O)c1ccc2nc(N)c3c(c2c1)COC3C` (centres unmarked) [Example 41], the IC50 in assay [1] is under 100 nM; in the assay with HCT116 MTAP WT cells, 1000 to 10000 nM. As for `CC1OCc2c1c(N)nc1ccc(C(=O)N(Cc3cn4cc(C(F)(F)F)ccc4n3)c3cnn(C)c3)cc21` (centres unmarked) [Example 42, 4-Amino-3-methyl-N-(1-methyl-1H-pyrazol-4-yl)-N-((6-(trifluoromethyl)imidazolo[1,2-a]pyridin-2-yl)methyl)-1,3-dihydrofurano[3,4-c]quinolin-8-carboxamide], the IC50 in assay [1] was under 100 nM; in the assay with HCT116 MTAP WT cells it was 1000 to 10000 nM. As for `Cc1nn(C)cc1N(Cc1cn2cc(C(F)(F)F)ccc2n1)C(=O)c1cc2c(cc1F)nc(N)c1cnn(C)c12` [Example 238], the IC50 in assay [1] is 100 to 1000 nM. For the molecule `Cn1nccc1N(Cc1cn2cc(C(F)(F)F)ccc2n1)C(=O)c1cc2c(cc1F)nc(N)c1cnn(C)c12` [Example 240], the IC50 in assay [1] was under 100 nM.
